{
  "source": "patent US20250269043A1",
  "about": "“TARGETED BIFUNCTIONAL DEGRADERS” (YALE UNIVERSITY, priority 2019, published 2025)",
  "key": {"[1]": {"test": "Tolerability in mice (body weight, serum AST and ALT)", "type": "in vivo", "experimental": "FIGS. 93A-93C illustrate that DNP-GN3 and DNP-OH3 are not toxic to mice at all tested concentrations. FIG. 93A: mouse body weight following treatment with DNP-GN3 or DNP-OH3. Statistical differences were analyzed by T test. FIG. 93B: levels of aspartate transaminase (AST) in treated mice. Dashed lines represent the normal range. FIG. 93C: levels of alanine transaminase (ALT) in treated mice. Dashed lines represent the normal range."}, "[2]": {"tested_on": "HepG2 cells", "test": "DNP-GN3-mediated endocytosis of fluorescently labeled α-DNP antibody by adherent HepG2 cells", "type": "cell-based, human", "conditions": "six and twelve hours; FIG. 87A-87B"}, "[3]": {"tested_on": "HepG2 cells", "test": "Colocalization of endocytosed MIF protein in HepG2 cells", "type": "cell-based, human", "conditions": "MIF 100 nM, MIF-GN3 200 nM; FIG. 133", "experimental": "FIG. 133 illustrates that cells treated with MIF-GN3 and exogenous MIF accumulate MIF punctate in cells. […] MIF was present at a concentration of 100 nM, and MIF-GN3 was present at a concentration of 200 nM.\nIn order to investigate the subcellular localization of endocytosed MIF protein, colocalization studies were performed in HepG2 cells. After 12 hours of MIF-GN mediated endocytosis, several punctae displaying MIF-derived fluorescence were present in each cell."}, "[4]": {"target": "T1, mouse MIF (Mus musculus, UniProt P34884)", "T1 construct": "mediate the depletion of endogenous mouse MIF in vivo; from tissue; host or cells: mouse serum, in vivo", "test": "Depletion of endogenous mouse MIF in vivo", "parameters": "species or system mice", "conditions": "single dose of 10 mpk; FIG. 137", "experimental": "In order to confirm that mice injected with one or ten mpk MIF-GN3 had received the injection, and that the observed stability of MIF concentrations in MIF-GN3 treated mice was not the result of injection error, 200 μg of α-DNP antibody was coinjected with the MIF protein in this experiment. […] An investigation of the ability of MIF-GN3 to mediate the depletion of endogenous mouse MIF in vivo was next undertaken. Mice were treated with either PBS or 10 mpk of MIF-GN3. […] One possible explanation for this finding is that MIF protein may be synthesized rapidly, and any increase in degradation mediated by MIF-GN3 may not be of a large enough magnitude to impact the protein's level in serum."}},
  "data": [
    {"smiles": "CC(=O)NC1C(OCCOCCOCCNC(=O)CCOCC(COCCC(=O)NCCOCCOCCOC2OC(CO)C(O)C(O)C2NC(C)=O)(COCCC(=O)NCCOCCOCCOC2OC(CO)C(O)C(O)C2NC(C)=O)NC(=O)CNC(=O)COCCOCCOCCNc2ccc([N+](=O)[O-])cc2[N+](=O)[O-])OC(CO)C(O)C1O", "note": "(centres unmarked) [DNP-GN3]", "values": [
      {"measurement": "differences in body weight or serum liver enzyme levels between control and treatment groups", "setting": "[1]; doses up to 100 mpk, FIGS. 93A-93C", "value": "no significant differences"},
      {"measurement": "well-tolerated dose", "setting": "[1]; mice", "value": "≤ 100", "unit": "mpk"},
      {"measurement": "intracellular fluorescence of adherent HepG2 cells", "setting": "[2]", "value": "dependent on the concentration of both DNP-GN3 and α-DNP antibody"}
    ]},
    {"smiles": "CC(=O)N[C@H]1[C@H](OCCOCCOCCNC(=O)CCOCC(COCCC(=O)NCCOCCOCCO[C@@H]2O[C@H](CO)[C@H](O)[C@H](O)[C@H]2NC(C)=O)(COCCC(=O)NCCOCCOCCO[C@@H]2O[C@H](CO)[C@H](O)[C@H](O)[C@H]2NC(C)=O)NC(=O)CNC(=O)CCCOc2ccc3nc(-c4cn(-c5ccc(O)c(F)c5)nn4)ccc3c2)O[C@H](CO)[C@H](O)[C@@H]1O", "note": "[MIF-GN3]", "values": [
      {"measurement": "colocalization of MIF signal with LAMP2", "setting": "[3]", "value": "strong colocalization"},
      {"measurement": "mouse MIF concentrations in serum", "setting": "[4]", "value": "No significant decrease"}
    ]}
  ]
}
